{
  "source": "patent US5994402A",
  "about": "“Anti-inflammatory and anti-pyretic method” (priority 1997, dated 1999)",
  "key": {"lung GSH": {"test_system": "lung GSH", "experiment": "Lung glutathione / non-protein thiol assay (DTNB)", "format": "in vivo, male Sprague Dawley rats", "conditions": "for Lung GSH (t = 4 hrs): LPS +, mean ± SEM", "procedure": "(§1) Male Sprague Dawley rats weighing 250-275 g were obtained from Charles River Laboratories (Constante, Quebec). All animal studies were performed in accordance with guidelines set forth by the Toronto Hospital Animal Care Committee and the Canadian Council on Animal Care. Animals were housed in standard wire bottom cages, fed standard rat chow and water ad libitum and were allowed to acclimatize before use. Prior to experimentation, animals were fasted overnight and anesthetized with intraperitoneal sodium pentobarbital (50 mg/kg). A tracheostomy was performed and 0.5 ml of saline containing […] of lipopolysaccharide was instilled followed by 20 mechanically ventilated breaths using a rodent ventilator. Sham animals received 0.5 ml of saline alone. Animals were maintained at 37° C. with the use of warming blankets until recovery from anaesthesia.\n(§2) For examples 11 to 17, systemic GSH depletion in animals was accomplished by administering various doses of DEM or phorone by intraperitoneal injection following an overnight fast\n(§3) Quantitation of total lung and endothelial non-protein sulfhydryls (NPSH) was assessed using a DTNB based assay as described by Jocelyn. Lung tissue was thawed and weighed, and approximately 0.25 gm was homogenized in 2 ml of 5% SSA. The homogenate was sonicated for 30 seconds and centrifuged for 10 minutes at 10 000 g. The resultant acid thiol extract was assayed for NPSH by quantitating the reduction of DTNB through its conversion to 5-thio-2-nitrobenzoic acid (TNB) at 412 nm using a spectrophotometer. Sample values were then calculated from a standard curve generated using known amounts of GSH and are expressed as GSH equivalents per gram of lung tissue.\nQuantitation of lung non-protein sulfhydryls (NPSH) was assessed using a DTNB based assay as described by Jocelyn ^17. Lung tissue was thawed and weighed, and approximately 0.25 gm was homogenized in 2 ml of 5% SSA. The homogenate was sonicated for 30 seconds and centrifuged for 10 minutes at 10 000 g. The resultant acid thiol extract was assayed for NPSH by quantitating the is reduction of DTNB through its conversion to 5-thio-2-nitrobenzoic acid (TNB) at 412 nm using a spectrophotometer. Sample values were then calculated from a standard curve generated using known amounts of GSH and are expressed as GSH equivalents per gram of lung tissue."}, "[1]": {"test_system": "lung permeability after intratracheal LPS", "experiment": "LPS-induced lung injury: lung permeability index (transcapillary 125I-albumin flux)", "format": "in vivo, male Sprague Dawley rats", "conditions": "for Lung PI (t = 4 hrs): LPS +, mean ± SEM", "procedure": "as §1, §2\nAt the end of the experimental protocol, rats were ventilated, heparin (100 U) was injected into the right ventricle, and 1 ml of blood was withdrawn by cardiac puncture. Following exsanguination, lungs were perfused blood-free by cannulating the pulmonary artery and infusing 10 ml of a low-potassium dextran solution containing 0.5 mg/L of PGE1. The left ventricle, left atria and mitral valve were opened widely to allow free drainage of effluent. The right lung was immediately frozen in liquid nitrogen for assay of non-protein thiols and ICAM-1 and TNF-a mRNA expression, myeloperoxidase activity, as described below. The left lung was used to calculate a permeability index (PI) as follows: [formula] Thioglycollate-induced Peritonitis"}, "[2]": {"test_system": "cerebral ischemia-reperfusion injury", "conditions": "literature; cited from earlier work"}, "RHEC": {"test_system": "RHEC", "experiment": "Cytotoxicity to RHEC (LDH, trypan blue, monolayer integrity)", "format": "cell-based, rat", "conditions": "for supernatant lactate dehydrogenase activity: DEM, mean ± SEM", "excerpt": "To determine whether the reduction in ICAM-1 expression was a direct effect of DEM, we attempted to recapitulate the effect in vitro using rat heart endothelial cells (RHEC) activated by either LPS or TNF-a.\n(§4) ICAM-1 is expressed on a number of cells present in the lung including endothelial cells, macrophages, neutrophils and alveolar epithelial cells {3224}. Since DEM served to reduced PMN sequestration In the lung, we hypothesized that an effect on endothelial cell ICAM-1 expression might be responsible. To test this possibility, we modeled the system in vitro using RHEC activated by either LPS or TNF-a. […] To determine whether the effect of GSH depletion on ICAM-1 expression was species specific, this parameter was similarly evaluated in HUVEC.\nEndothelial cells were isolated from the hearts of 5-day old rats according to the method of Kasten ^22 and allowed to grow to confluence. For experiments 11 to 17, human umbilical vein endothelial cells (HUVEC) were isolated as previously described. The endothelial cells were harvested using trypsin-EDTA treatment and seeded into 96 well, flat bottomed microtitre plates in minimal essential medium with 20% fetal calf serum. When the monolayers had reached confluence (approximately 4 days) cells were pretreated with diethylmaleate for 30 minutes followed by activation with either LPS or TNF-a. After 6 hours, supernatants were collected for measurement of lactate dehydrogenase (LDH) activity. Cells were washed twice with RPMI/5% fetal calf serum and incubated with mouse anti-rat ICAM-1 mAb for 1 hour, washed, and then incubated with peroxidase-conjugated goat anti-mouse IgG for 1 hour. Cells were washed again and color development initiated by the addition of the substrate, o-phenyidiamine hydrochloride. After 18 minutes, the reaction was stopped with 3 M sulfuric acid and the optical density at 492 nm determined using a microtitre plate reader. Data are expressed as the change in absorption from baseline. Quantitation of supernatant LDH activity as a measure of cytotoxicity was determined using spectrophotometric methods as previously described ^23."}, "[3]": {"test_system": "kidney transplant recipients", "experiment": "Kidney transplant survival", "format": "in vivo, black 6 mouse donor to C3H mouse", "conditions": "DEM 6 mmol/kg to donor and recipient; some mice", "excerpt": "A kidney from a black 6 mouse was transplanted into a C3H mouse in a sample of ten test mice and ten control mice. This is a major mismatch. In the test group, donors were given a single injection of DEM (6mmol/kg) immediately prior to the harvest of the kidney. Recipient mice received a single dose prior to insertion of the kidney. No other agents were used. In the control group, donors and recipients were not given an injection of DEM."}, "[4]": {"test_system": "skin vascular permeability", "experiment": "LPS dermal inflammation: skin permeability index", "format": "in vivo, Swiss Webster mice", "conditions": "for PI (mean ± SEM): 24 h", "procedure": "Swiss Webster mice were injected intradermally with saline or LPS (30 μg) with or without ip DEM or vehicle. Injection sites were harvested after 24 hours and evaluated for change in vascular permeability, using I^125 -labelled albumin and for levels of ICAM-1 mRNA (Table III)."}, "[5]": {"test_system": "intracellular GSH levels in RHEC", "experiment": "Intracellular GSH in RHEC", "format": "cell-based, rat", "conditions": "DEM 250 mM (so in the source)", "excerpt": "as §4, §3"}, "[6]": {"test_system": "antigen-induced arthritis", "experiment": "Antigen-induced arthritis (AIA)", "format": "in vivo, Lewis rats", "conditions": "DEM 6 mmole/kg ip 1 h prior to antigen; 3+ without DEM", "procedure": "We examined the effect of intracellular thiol depletion in antigen-induced arthritis (AIA) with the administration of diethylmaleate (DEM) which is known to deplete glutathione. AIA was induced by sensitizing Lewis rats with 2 subcutaneous injections of methylated bovine serum albumin (1 mg/ml), then administering an intra-articular injection of mBSA."}, "[7]": {"conditions": "phorone 250 mg/kg ip 1 h prior to LPS"}},
  "data": [
    {"smiles": "CC(C)=CC(=O)C=C(C)C", "note": "[Phorone, diisopropylidene acetone]", "values": [
      {"measurement": "reduction in lung GSH levels", "setting": "lung GSH; [7]", "value": "comparable reduction in lung GSH levels"},
      {"measurement": "LPS-induced increase in lung permeability", "setting": "[1]; [7]", "value": "almost complete prevention of the increase in lung permeability"}
    ]},
    {"smiles": "CCCCS(=N)(=O)CCC(N)C(=O)O", "note": "(stereo not shown) [BSO, buthionine sulfoximine]", "values": [
      {"measurement": "mortality following cerebral ischemia-reperfusion injury", "setting": "[2]", "value": "reduced mortality"}
    ]},
    {"smiles": "CCOC(=O)/C=C\\C(=O)OCC", "note": "[DEM, diethylmaleate]", "values": [
      {"measurement": "cell viability (trypan blue exclusion)", "setting": "RHEC; RHEC", "value": "did not affect cell viability"},
      {"measurement": "integrity of the cell monolayer", "setting": "RHEC; RHEC", "value": "nor alter the integrity of the cell monolayer"},
      {"measurement": "supernatant lactate dehydrogenase levels", "setting": "RHEC; RHEC", "value": "unaffected"},
      {"measurement": "supernatant lactate dehydrogenase activity", "setting": "RHEC; RHEC treatment: LPS (1 mg/ml)", "value": "33.0 ± 4.0", "unit": "U/L"},
      {"measurement": "supernatant lactate dehydrogenase activity", "setting": "RHEC; RHEC treatment: TNF-a (100 ng/ml)", "value": "33.5 ± 2.5", "unit": "U/L"},
      {"measurement": "supernatant lactate dehydrogenase activity", "setting": "RHEC; RHEC treatment: control", "value": "32.5 ± 3.5", "unit": "U/L"},
      {"measurement": "Lung GSH (t = 4 hrs)", "setting": "lung GSH; DEM injected at 0 h", "value": "278 ± 18"},
      {"measurement": "Lung GSH (t = 4 hrs)", "setting": "lung GSH; DEM injected at +2 h", "value": "361 ± 16"},
      {"measurement": "Lung GSH (t = 4 hrs)", "setting": "lung GSH; DEM injected at -1 h", "value": "185 ± 48"},
      {"measurement": "Lung GSH (t = 4 hrs)", "setting": "lung GSH; DEM injected at -3 h", "value": "591 ± 118"},
      {"measurement": "survival of recipients", "setting": "[3]", "value": "40 to 50", "unit": "days"},
      {"measurement": "skin permeability index, DEM alone", "setting": "[4]; DEM alone", "value": "no effect"},
      {"measurement": "PI (mean ± SEM)", "setting": "[4]; LPS id + DEM 3 mmol/kg ip", "value": "4.03 ± 0.43"},
      {"measurement": "PI (mean ± SEM)", "setting": "[4]; LPS id + DEM 6 mmol/kg ip, p < 0.001 vs LPS", "value": "0.84 ± 0.28"},
      {"measurement": "reduction in intracellular GSH levels", "setting": "[5]", "value": "≈ 75%"},
      {"measurement": "intracellular GSH levels", "setting": "[5]; No DEM: 6.74±0.08, p<0.01", "value": "1.66±0.1", "unit": "nmoles/106 cells"},
      {"measurement": "Lung PI (t = 4 hrs)", "setting": "[1]; DEM injected at -1 h", "value": "0.06 ± 0.02"},
      {"measurement": "Lung PI (t = 4 hrs)", "setting": "[1]; DEM injected at -3 h", "value": "0.09 ± 0.02"},
      {"measurement": "quantitative histopathology score", "setting": "[6]", "value": 0}
    ]}
  ]
}
